# Where two headings read alike, the source gives them in different places.
# Tests used:
# [1] = test system: lung fibroblasts isolated from human IPF donor lungs; assay: Fibroblast-to-myofibroblast transition (FMT), aSMA induction by TGFb, IPF donor fibroblasts; assay type: cell-based; settings: 1.25 ng/mL TGFb; for IC50: Homo sapiens, Fibroblast, 72 h, read-out: LogM IC50 aSMA (converted); for LogM IC50 aSMA: 72 hours
# Method: (§1) Primary fibroblasts cultured from the lungs of patients with IPF (n=3) or healthy donors (n=3) were exposed to Chk1 inhibitors or control compounds to determine the effect of Chk1 inhibitors on fibroblast differentiation into myofibroblasts (i.e., fibroblast-to-myofibroblast transition [FMT]). […] Chk1 inhibitors were dosed in an 8-point concentration curve 1 hr prior to TGFb treatment. Alpha-SMA and DAPI staining were assessed after 72 hours using high content analysis. The ability of the Chk1 inhibitors to block fibroblast-to-myofibroblast differentiation was determined by quantifying percent inhibition (PIN) of aSMA induction. Cell viability was also measured to determine whether the compounds were cytotoxic.
# [2] = test system: Primary fibroblasts cultured from the lungs of healthy donors; assay: Fibroblast-to-myofibroblast transition (FMT), aSMA induction by TGFb, healthy donor fibroblasts; assay type: cell-based, human; settings: 1.25 ng/mL TGFb; for IC50: Homo sapiens, Fibroblast, 72 h, read-out: LogM IC50 aSMA (converted); for LogM IC50 aSMA: 72 hours
# Method: as §1
# [3] = test system: M1 macrophages differentiated from human monocytes; assay: M1 macrophage activation, CD80 flow cytometry after LPS/IFNg; assay type: cell-based; settings: dosed 1 hour before LPS/IFNg, 3 days; FIG. 2A
# Method: (§2) Human monocytes were isolated from the peripheral blood of IPF patients, exposed to various doses of PF-477736 for 1 hour, and then differentiated into M1 macrophages by exposure to LPS/IFNg, or into M2 macrophages by exposure to IL-4, for 3 days. The cells were analyzed by flow cytometry for CD80 cell surface expression as marker of M1 differentiation, and for CD163 cell surface expression as marker of M2 differentiation. In addition, cell supernatants were tested in a Luminex-based assay for various cytokines and matrix metalloproteinases (MMPs).
# [4] = test system: M2 macrophages differentiated from human monocytes; assay: M2 macrophage activation, CD163 flow cytometry after IL-4; assay type: cell-based; settings: dosed 1 hour before IL-4, 3 days; FIG. 2B
# Method: as §2
# [5] = test system: macrophages exposed to LPS and IFNg; assay: Luminex-based assay of cytokines and MMPs in macrophage supernatants; assay type: cell-based, human; settings: FIG. 2C
# Method: as §2
# [6] = test system: mouse model of pulmonary fibrosis; assay: Bleomycin mouse model of pulmonary fibrosis: histopathology and collagen deposition; assay type: in vivo, C57BL6 mice; settings: for Collagen deposition (% pixel count) / Fiber Alignment / Fiber Count / Fiber Density: relative vs vehicle; for disease burden by collagen deposition, fiber count, fiber density and fiber alignment (Sirius red): FIG. 4A, FIG. 4B, Table 8; for histopathology scores (Ashcroft, Masson's Trichrome): PF-477736 10 or 20 mg/kg i.p., nintedanib 100 mg/kg orally, FIG. 3A
# Method: To induce fibrosis, 6-8 week old C57BL6 mice were dosed with 3 mg/kg bleomycin hydrochloride in a volume of 50 μL per animal via intratracheal (i.t.) administration with a microsprayer. One week following administration of bleomycin, mice were treated with compound or vehicle once daily from day 7 to day 20. PF-477736 was administered at a dose of either 10 mg/kg (“med”) or 20 mg/kg (“high”) i.p. in a vehicle of […] sodium acetate buffer and 4% dextrose, pH 4. Nintedanib was administered orally at 100 mg/kg in a vehicle of 1% methylcellulose. n=10 mice per group.
# At the end of the study, lungs were processed using standard histological methods for Masson's Trichrome staining and were assigned Ashcroft scores by a blinded pathologist.
# Whole lung imaging was performed using a modified deep learning algorithm to calculate an average histogram (FIG. 3B) and empirical cumulative density function (ECDF, FIG. 3C) for each arm. The X axes represent severity of pathology, and the Y axes represent frequency (histograms) or cumulative frequency (ECDF).
# Histological sections were also stained using Sirius red and assessed for collagen deposition (%), collagen fiber count, collagen fiber density, and collagen fiber alignment in a protocol modified from Bredfeldt et al. 2014, “Computational segmentation of collagen fibers from second-harmonic generation images of breast cancer.” Journal of biomedical optics 19.1.
# [7] = test system: Human lung fibroblasts from three donors; assay: FMT assay, Chk1 inhibitor combined with nintedanib or pirfenidone; assay type: cell-based; settings: nintedanib concentration curve, Chk1 inhibitor at pre-determined IC20; FIG. 7
# Method: Human lung fibroblasts from three donors were seeded in 96-well plates and treated with 1.25 ng/mL TGFb to induce differentiation to a myofibroblast phenotype (characterized by the induction of alpha smooth muscle actin—aSMA). A Chk1 inhibitor PF-477736, or standard-of-care compounds in IPF (nintedanib or pirfenidone) were dosed as indicated in an 8-point concentration curve 1 hr prior to TGFb treatment. Alpha-SMA and DAPI staining were assessed after 72 hours using high content analysis for percent inhibition of aSMA induction and % viable cells. CRC=concentration response curve. The first noted compound was dosed in an 8-point concentration curve, while the second noted compound was dosed at the pre-determined IC20 in this assay.
# For each condition, percent inhibition (PIN) of aSMA induction was calculated (circles, and left y-axis), and the percent of viable cells was calculated (triangles, right y-axis).
# [8] = 20 mg/kg i.p. once daily day 7 to day 20
# [9] = Multi-dose: mice from both the 10 mg/kg and the 20 mg/kg groups
# [10] = donor FB0303*, Healthy (aberrant response to nintedanib)
# [11] = 100 mg/kg orally once daily day 7 to day 20
compound,measurement,setting,value
NC(=O)Nc1cc(-c2cccc(F)c2)sc1C(=O)N[C@H]1CCCNC1 [AZD-7762],IC50,"[1]; donor IPF06, IPF",794 nM
same,IC50,"[1]; donor IPF07, IPF",794 nM
same,IC50,"[1]; donor IPF08, IPF",501 nM
same,IC50,"[2]; donor FB0054, Healthy",1260 nM
same,IC50,"[2]; donor FB2382, Healthy",631 nM
COc1cc2nc(-c3cc(F)ccc3O)nc(N[C@@H]3CNC[C@H]3C(C)(C)O)c2cc1OC [CCT-241533],IC50,"[1]; donor IPF06, IPF",631 nM
same,IC50,"[1]; donor IPF07, IPF",158 nM
same,IC50,"[1]; donor IPF08, IPF",316 nM
same,IC50,"[2]; donor FB0054, Healthy",398 nM
same,IC50,"[2]; donor FB2382, Healthy",501 nM
PF-477736,M1 macrophage activation (CD80 cell surface expression),[3],inhibits M1 macrophage activation in a dose-dependent manner
same,M2 macrophage activation (CD163 cell surface expression),[4],inhibits M2 macrophage activation in a dose-dependent manner
same,levels of representative cytokines and matrix metalloproteinases in supernatants,[5],lower levels of representative cytokines and matrix metalloproteinases
same,Collagen deposition (% pixel count),[6]; 10 mg/kg i.p. once daily day 7 to day 20,−1.27 % pixel count
same,Collagen deposition (% pixel count),[6]; [8],−1.64 % pixel count
same,Fiber Alignment,[6]; [8],0.08
same,Fiber Count,[6]; [8],−66.3
same,Fiber Density,[6]; [8],−0.66
same,"disease burden by collagen deposition, fiber count, fiber density and fiber alignment (Sirius red)",[6],reduced disease burden by all of these parameters in a dose-dependent manner
same,Collagen deposition (% pixel count),[6]; [9],−1.63 % pixel count
same,Fiber Alignment,[6]; [9],0.08
same,Fiber Count,[6]; [9],−67.7
same,Fiber Density,[6]; [9],−0.69
same,"histopathology scores (Ashcroft, Masson's Trichrome)",[6],improved histopathology scores
same,"pathology severity, whole lung imaging (histogram, ECDF)","[6]; deep learning algorithm, FIG. 3B, 3C",greater reduction in pathology severity compared to nintedanib
N[C@@H]1CCCN(c2c(Br)cnc3[nH]cc(NC(=O)C4CC4)c23)C1 [GDC-0575],LogM IC50 aSMA,"[1]; donor IPF06, IPF",−5.7 LogM
same,LogM IC50 aSMA,"[1]; donor IPF07, IPF",−5.7 LogM
same,LogM IC50 aSMA,"[1]; donor IPF08, IPF",−5.8 LogM
same,LogM IC50 aSMA,"[2]; donor FB0054, Healthy",−5.9 LogM
same,LogM IC50 aSMA,[2]; [10],−5.8 LogM
same,LogM IC50 aSMA,"[2]; donor FB2382, Healthy",−5.9 LogM
COC(=O)c1ccc2c(c1)NC(=O)/C2=C(\Nc1ccc(N(C)C(=O)CN2CCN(C)CC2)cc1)c1ccccc1 [Nintedanib],Collagen deposition (% pixel count),[6]; [11],+0.31 % pixel count
same,Fiber Alignment,[6]; [11],−0.03
same,Fiber Count,[6]; [11],+20
same,Fiber Density,[6]; [11],+0.40
same,"disease burden by collagen deposition, fiber count, fiber density and fiber alignment (Sirius red)",[6],did not
same,"histopathology scores (Ashcroft, Masson's Trichrome)",[6],improved histopathology scores
same,concentration of nintedanib required for 50% inhibition of fibroblast to myofibroblast differentiation,[7],lower when co-administered with a Chk1 inhibitor
Cn1cc(-c2cnn3c(N)c(Br)c([C@@H]4CCCNC4)nc23)cn1 [MK-8776],IC50,"[1]; donor IPF06, IPF",2000 nM
same,IC50,"[1]; donor IPF07, IPF",2000 nM
same,IC50,"[1]; donor IPF08, IPF",1580 nM
same,IC50,[2]; [10],398 nM
same,IC50,"[2]; donor FB2382, Healthy",3160 nM
N#Cc1cnc(Nc2cc(NC[C@H]3CNCCO3)c(C(F)(F)F)cn2)cn1 [CCT-245737],IC50,"[1]; donor IPF06, IPF",3160 nM
same,IC50,"[1]; donor IPF07, IPF",3160 nM
same,IC50,"[1]; donor IPF08, IPF",3160 nM
same,IC50,"[2]; donor FB0054, Healthy",3160 nM
same,IC50,[2]; [10],2510 nM
same,IC50,"[2]; donor FB2382, Healthy",3160 nM
COc1cccc(OCCCN)c1-c1cc(Nc2cnc(C#N)cn2)n[nH]1 [prexasertib],IC50,"[1]; donor IPF06, IPF",1000 nM
same,IC50,"[1]; donor IPF07, IPF",1000 nM
same,IC50,"[1]; donor IPF08, IPF",631 nM
same,IC50,"[2]; donor FB0054, Healthy",631 nM
same,IC50,"[2]; donor FB2382, Healthy",794 nM

# From patent publication US20220031708A1, “METHOD FOR TREATING IDIOPATHIC PULMONARY FIBROSIS” (NuMedii, Inc., priority 2019, published 2022)
